We go through 38 compounds from patent US20250171438A1 (Agios Pharmaceuticals, Inc., priority 2022, published 2025).

The target of the first assay is T1, human PAH with the R408W mutation (Homo sapiens, UniProt P00439, R408W).
T1 construct: expressed in transfected cells
T1 sequence (P00439 1-452 R408W): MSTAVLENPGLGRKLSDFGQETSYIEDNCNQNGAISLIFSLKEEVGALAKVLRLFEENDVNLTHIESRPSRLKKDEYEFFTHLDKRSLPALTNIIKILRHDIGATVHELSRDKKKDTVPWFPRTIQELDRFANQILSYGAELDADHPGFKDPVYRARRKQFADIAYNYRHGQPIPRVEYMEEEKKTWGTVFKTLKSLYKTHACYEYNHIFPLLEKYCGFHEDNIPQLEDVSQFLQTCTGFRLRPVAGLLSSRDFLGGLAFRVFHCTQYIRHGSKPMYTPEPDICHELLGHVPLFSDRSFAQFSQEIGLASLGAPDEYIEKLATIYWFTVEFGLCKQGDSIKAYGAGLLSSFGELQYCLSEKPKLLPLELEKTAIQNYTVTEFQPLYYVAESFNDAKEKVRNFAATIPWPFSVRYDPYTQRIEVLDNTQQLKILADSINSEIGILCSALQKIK
The experiment in a line: Cell Based Phenylalanine Flux Assay. Conditions: A375 cells expressing human R408W PAH; 24 hrs compound incubation; 13C-Tyrosine by LC-MS; average where tested multiple times; read-out: AC50.
Experimental: Compounds were resuspended in DMSO, and 2-fold serial dilutions were performed to generate a 10-point dose curve. Compounds were added to plated cells in a total volume of 100 pal, and a final DMSO concentration of 0.5%. Each compound was tested in duplicate. Following compound addition, cells were placed in a 5% CO2, 37° C. tissue culture incubator for 24 hrs. After the incubation period, 20 μM sepiapterin and 800 μM 13C9,15N-Phenylalanine were added. After 4 hours, cell media was removed. An aliquot of 10 μl of cell media was combined with 200 μl of extraction buffer (80% acetonitrile/20% H2O) for each well. Determination of ^13C-Tyrosine concentration was assessed by liquid chromatography mass spectrometry.
Where a compound was tested multiple times, the average value of the tests is reported.
The term AC50 denotes the midpoint of the concentration-response curve, whichever way the signal moves. Turning to `CC(C)(C)c1ncc(C(=O)N2CCc3[nH]cnc3[C@@H]2c2nc3ccccc3s2)s1` [Example 1422, (R)-(4-(benzo[d]thiazol-2-yl)-6,7-dihydro-1H-imidazo[4,5-c]pyridin-5(4H)-yl)(2-(tert-butyl)thiazol-5-yl)methanone], the AC50 fell in the range of 1000 to 5000 nM.

Take `O=C(c1scnc1Cl)N1CCc2[nH]cnc2[C@H]1c1nc2c(F)cccc2s1` [Example 1640]: the AC50 was in the range of 500 to 1000 nM. Still for that read-out and setting: then `O=C(c1cnn2ccccc12)N1CCc2[nH]cnc2[C@H]1c1nc2cccc(F)c2[nH]1` [Example 990, (S)-(4-(7-fluoro-1H-benzo[d]imidazol-2-yl)-6,7-dihydro-1H-imidazo[4,5-c]pyridin-5(4H)-yl)(pyrazolo[1,5-a]pyridin-3-yl)methanone], with 500 to 1000 nM. Still for that read-out and setting: then `Cc1nc([C@H](C)O)oc1C(=O)N1CCc2[nH]cnc2[C@H]1c1nc2c(F)cccc2s1` [Example 1911, ((S)-4-(4-fluorobenzo[d]thiazol-2-yl)-6,7-dihydro-1H-imidazo[4,5-c]pyridin-5(4H)-yl)(2-((S)-1-hydroxyethyl)-4-methyloxazol-5-yl)methanone], with 500 to 1000 nM. Still for that read-out and setting: under `O=C(c1ncc(Cl)s1)N1CCc2[nH]cnc2[C@H]1c1nc2ccccc2s1` [Example 1053] stands 500 to 1000 nM; under `COC(C)(C)c1nc(C)c(C(=O)N2CCc3[nH]cnc3[C@H]2c2nc3c(F)cccc3s2)o1` [Example 1916, (S)-(4-(4-fluorobenzo[d]thiazol-2-yl)-6,7-dihydro-1H-imidazo[4,5-c]pyridin-5(4H)-yl)(2-(2-methoxypropan-2-yl)-4-methyloxazol-5-yl)methanone], 1000 to 5000 nM. As to `O=C(c1cn(CC2CC(F)(F)C2)nc1Cl)N1CCc2[nH]cnc2[C@@H]1c1nc2c(F)cccc2s1` [Example 2004, (R)-(3-chloro-1-((3,3-difluorocyclobutyl)methyl)-1H-pyrazol-4-yl)(4-(4-fluorobenzo[d]thiazol-2-yl)-6,7-dihydro-1H-imidazo[4,5-c]pyridin-5(4H)-yl)methanone], the AC50 lay in the range of 1000 to 5000 nM. The same measure, in the same setting: under `Cc1ncoc1C(=O)N1CCc2[nH]cnc2[C@H]1c1nc2c(F)cccc2s1` [Example 1319, (S)-(4-(4-fluorobenzo[d]thiazol-2-yl)-6,7-dihydro-1H-imidazo[4,5-c]pyridin-5(4H)-yl)(4-methyloxazol-5-yl)methanone] stands under 500 nM; under `O=C(C1CC1)N1CCc2[nH]cnc2[C@@H]1c1nc2ccc(Br)cc2[nH]1` [Example 951, (R)-(4-(6-bromo-1H-benzo[d]imidazol-2-yl)-6,7-dihydro-1H-imidazo[4,5-c]pyridin-5(4H)-yl)(cyclopropyl)methanone], over 5000 nM; under `Cc1ccn2ncc(C(=O)N3CCc4[nH]cnc4[C@H]3c3nc4ccccc4s3)c2c1` [Example 1125], 1000 to 5000 nM. Still for that read-out and setting: then `O=C(c1cnn2ccccc12)N1CCc2nc[nH]c2[C@H]1c1nc2c(F)cccc2s1` [Example 1111, (S)-(4-(4-fluorobenzo[d]thiazol-2-yl)-6,7-dihydro-3H-imidazo[4,5-c]pyridin-5(4H)-yl)(pyrazolo[1,5-a]pyridin-3-yl)methanone], with 500 to 1000 nM; and `Cc1nnc(C(=O)N2CC3(CC3)c3[nH]cnc3[C@@H]2c2nc3ccccc3s2)o1` [Example 1685, (R)-(4′-(benzo[d]thiazol-2-yl)spiro[cyclopropane-1,7′-imidazo[4,5-c]pyridin]-5′(1′H,4′H,6′H)-yl)(5-methyl-1,3,4-oxadiazol-2-yl)methanone], with 1000 to 5000 nM. Still for that read-out and setting: then `O=C(c1ccnn1C(F)(F)F)N1CCc2[nH]cnc2[C@@H]1c1nc2c(F)cccc2s1` [Example 2100, (R)-(4-(4-fluorobenzo[d]thiazol-2-yl)-6,7-dihydro-1H-imidazo[4,5-c]pyridin-5(4H)-yl)(1-(trifluoromethyl)-1H-pyrazol-5-yl)methanone], with 1000 to 5000 nM; and `O=C(c1ncc(-c2ccccc2)s1)N1CCc2[nH]cnc2[C@@H]1c1nc2ccccc2s1` [Example 1190, (R)-(4-(benzo[d]thiazol-2-yl)-6,7-dihydro-1H-imidazo[4,5-c]pyridin-5(4H)-yl)(5-phenylthiazol-2-yl)methanone], with over 5000 nM.

In the case of `Cc1ncoc1C(=O)N1CCCc2[nH]cnc2[C@H]1c1nc2ccccc2s1` [Example 2129, (S)-(4-(benzo[d]thiazol-2-yl)-7,8-dihydroimidazo[4,5-c]azepin-5(1H,4H,6H)-yl)(4-methyloxazol-5-yl)methanone], the AC50 lay within 1000 to 5000 nM.

Regarding `CC(C)(O)c1nnc(C(=O)N2CC3(CC3)c3[nH]cnc3[C@H]2c2nc3ccccc3s2)o1` [Example 1696, (S)-(4′-(benzo[d]thiazol-2-yl)spiro[cyclopropane-1,7′-imidazo[4,5-c]pyridin]-5′(1′H,4′H,6′H)-yl)(5-(2-hydroxypropan-2-yl)-1,3,4-oxadiazol-2-yl)methanone], the AC50 fell in the range of 500 to 1000 nM. As to `Cn1nccc1C(=O)N1CCc2[nH]cnc2[C@H]1c1nc2c(C(F)(F)F)cccc2s1` [Example 2111, (S)-(1-methyl-1H-pyrazol-5-yl)(4-(4-(trifluoromethyl)benzo[d]thiazol-2-yl)-6,7-dihydro-1H-imidazo[4,5-c]pyridin-5(4H)-yl)methanone], the AC50 lay within 500 to 1000 nM.

For the compound `O=C(c1oc(C2(O)CCC2)nc1C(F)(F)F)N1CCc2[nH]cnc2[C@H]1c1nc2ccccc2s1` [Example 1565], the AC50 was under 500 nM. The same measure, in the same setting: under `CC(C)(O)c1nc(C(F)(F)F)c(C(=O)N2CC3(CC3)c3[nH]cnc3[C@H]2c2nc3ccccc3s2)o1` [Example 1679, (S)-(4′-(benzo[d]thiazol-2-yl)spiro[cyclopropane-1,7′-imidazo[4,5-c]pyridin]-5′(1′H,4′H,6′H)-yl)(2-(2-hydroxypropan-2-yl)-4-(trifluoromethyl)oxazol-5-yl)methanone] stands 500 to 1000 nM.

`O=C(c1cnn2ccccc12)N1CCc2[nH]cnc2[C@H]1c1nc2ccc(Cl)cc2[nH]1` [Example 936, (S)-(4-(6-chloro-1H-benzo[d]imidazol-2-yl)-6,7-dihydro-1H-imidazo[4,5-c]pyridin-5(4H)-yl)(pyrazolo[1,5-a]pyridin-3-yl)methanone]: the AC50 lay within 1000 to 5000 nM. The same measure, in the same setting: then `O=C(c1nnc(-c2cnn(C(F)F)c2)o1)N1CCc2[nH]cnc2[C@H]1c1nc2ccccc2s1` [Example 1777], with under 500 nM. Same read-out and setting: under `O=C(c1ncn2ccccc12)N1CCc2[nH]cnc2[C@@H]1c1nc2cc(F)ccc2s1` [Example 1158, (R)-(4-(5-fluorobenzo[d]thiazol-2-yl)-6,7-dihydro-1H-imidazo[4,5-c]pyridin-5(4H)-yl)(imidazo[1,5-a]pyridin-1-yl)methanone] stands over 5000 nM; under `O=C(c1n[nH]c2ccccc12)N1CCc2[nH]cnc2[C@H]1c1nc2ccccc2s1` [Example 1049], 500 to 1000 nM.

For `O=C(c1cnc(C(F)(F)F)o1)N1CCc2[nH]cnc2[C@H]1c1nc2c(F)cccc2s1` [Example 1401, (S)-(4-(4-fluorobenzo[d]thiazol-2-yl)-6,7-dihydro-1H-imidazo[4,5-c]pyridin-5(4H)-yl)(2-(trifluoromethyl)oxazol-5-yl)methanone], the AC50 is under 500 nM. On the same count and under the same terms, under `O=C(c1ocnc1-c1ccccn1)N1CCc2[nH]cnc2[C@H]1c1nc2ccccc2s1` [Example 1450] stands 500 to 1000 nM. Take “(R)-2-((4-(6-bromo-1H-benzo[d]imidazol-2-yl)-6,7-dihydro-1H-imidazo[4,5-c]pyridin-5(4H)-yl)methyl)thiazole [Example 968]”: the AC50 was 1000 to 5000 nM. On the same count and under the same terms, then `O=C(c1ocnc1C(F)F)N1CCc2[nH]cnc2[C@H]1c1nc2ccccc2s1` [Example 1539], with under 500 nM.

Still in this assay, the particulars now being: A375 cells expressing human R408W PAH; 24 hrs with compound; 13C-Tyrosine by LC-MS; average where tested multiple times; read-out: AC50.
Consider `O=C(CCc1nccs1)N1CCc2[nH]cnc2[C@H]1c1nc2cccc(F)c2[nH]1` (single isomer, unassigned), for which the AC50 lay within 1000 to 5000 nM.

Regarding `c1ccc2oc(N3CCc4[nH]cnc4C3c3nc4ccccc4s3)nc2c1` (centres unmarked), the half-maximal activity concentration (AC50) is over 5000 nM. The same measure, in the same setting: then `O=C(Cc1noc2ccccc12)N1CCc2[nH]cnc2C1c1nc2ccccc2[nH]1` (centres unmarked), with 1000 to 5000 nM; and `O=C(c1cnn2c(Br)cccc12)N1CCc2[nH]cnc2C1c1nc2ccc(Cl)cc2[nH]1` (centres unmarked), with over 5000 nM; and `O=C(c1nc2cc(F)ccc2s1)N1CCc2[nH]cnc2[C@H]1c1nc2ccccc2[nH]1` [(S)-(4-(1H-benzo[d]imidazol-2-yl)-6,7-dihydro-1H-imidazo[4,5-c]pyridin-5(4H)-yl)(5-fluorobenzo[d]thiazol-2-yl)methanone], with 1000 to 5000 nM. On the same count and under the same terms, then `CC(C)(O)c1noc(C(=O)N2CCc3[nH]cnc3C2c2nc3c(F)cccc3s2)n1` (centres unmarked), with over 5000 nM; and `Cc1nc(C(C)(C)O)oc1C(=O)N1CCc2[nH]cnc2[C@H]1c1nc2ccccc2[nH]1` [(S)-(4-(1H-benzo[d]imidazol-2-yl)-6,7-dihydro-1H-imidazo[4,5-c]pyridin-5(4H)-yl)(2-(2-hydroxypropan-2-yl)-4-methyloxazol-5-yl)methanone], with over 5000 nM; and `O=C(c1cnn2ccccc12)N1CCc2[nH]cnc2C1c1nc2ccc(F)cc2[nH]1` (centres unmarked), with 1000 to 5000 nM.

Consider `O=C(c1cc2ccccn2c1)N1CCc2[nH]cnc2[C@H]1c1nc2ccccc2s1` (single isomer, unassigned), for which the AC50 lay within 1000 to 5000 nM. Regarding `O=C(c1cnn2cc(CCc3ccccc3)ccc12)N1CCc2[nH]cnc2C1c1nc2ccccc2s1` (centres unmarked), the AC50 is over 5000 nM.

Staying with this assay, now noted: AC50, A375 cells expressing human R408W PAH; 24 hrs with compound; 13C-Tyrosine by LC-MS; average where tested multiple times.
Take `Cc1nnc(C(=O)N2CCc3[nH]cnc3C2c2nc3ccc(Cl)cc3[nH]2)s1` (centres unmarked): the AC50 is over 5000 nM.
